Test results: ChEMBL document CHEMBL3853306, “Antidepressant-like effects and mechanisms of flavonoids and related analogues” (Eur J Med Chem, 2016)
Values after ≈ are worked out from the molar mass of the structure shown.

What was measured:
Mus musculus = test: In vivo inhibition of MAOA in ICR mouse brain at 20 mg/kg administered via oral gavage using kynuramine dihydrobromide as substrate preincubated for 15 mins followed by substrate addition measured after 30 mins in presence of MAOB inhibitor deprenyl by fluorescence spectrometric method; assay type: functional
[1] = Antidepressant- like activity in Balb/c mouse assessed as immobility time at 1 mg/kg, ip administered 30 mins prior to testing by forced swimming test (reference value: 123.3 +/- 10.7 secs); assay type: functional, organism-based
[2] = Antidepressant- like activity in Balb/c mouse assessed as immobility time at 5 mg/kg, ip administered 30 mins prior to testing by forced swimming test (reference value: 123.3 +/- 10.7 secs); assay type: functional, organism-based
[3] = Antidepressant- like activity in Balb/c mouse assessed as immobility time at 10 mg/kg, ip administered 30 mins prior to testing by forced swimming test (reference value: 123.3 +/- 10.7 secs); assay type: functional, organism-based
[4] = Antidepressant- like activity in Balb/c mouse assessed as immobility time at 1 mg/kg, ip administered 30 mins prior to testing by tail suspension test (reference value: 130.5 +/- 9.6 secs); assay type: functional, organism-based
[5] = Antidepressant- like activity in Balb/c mouse assessed as immobility time at 5 mg/kg, ip administered 30 mins prior to testing by tail suspension test (reference value: 130.5 +/- 9.6 secs); assay type: functional, organism-based
[6] = Antidepressant- like activity in Balb/c mouse assessed as immobility time at 10 mg/kg, ip administered 30 mins prior to testing by tail suspension test (reference value: 130.5 +/- 9.6 secs); assay type: functional, organism-based
[7] = Antidepressant activity in albino mouse assessed as immobility time at 10 mg/kg, ip administered 30 mins prior to testing by forced swimming test (reference value: 141 +/- 14.2 secs); assay type: functional, organism-based
[8] = Antidepressant activity in albino mouse assessed as decrease in immobility time at 10 mg/kg, ip administered 30 mins prior to testing by forced swimming test relative to control; assay type: functional, organism-based; design: scale not given: the % may be the effect or the level left
[9] = Inhibition of MAO in mouse brain mitochondrial fraction using kynuramine as substrate assessed as formation of 4-hydroxyquinoline by fluorescence spectrometric method; assay type: tissue-based
[10] = Antidepressant- like activity in mouse assessed as duration of immobility time at 10 mg/kg, ip by forced swimming test (reference value: 141.5 +/- 10.9 secs); assay type: functional, organism-based
[11] = Antidepressant- like activity in mouse assessed as duration of immobility time at 10 mg/kg, ip by tail suspension test (reference value: 130.5 +/- 9.6 secs); assay type: functional, organism-based
[12] = Antidepressant- like activity in mouse assessed as decrease in immobility time at 30 mg/kg, po by forced swimming test relative to control; assay type: functional, organism-based; design: scale not given: the % may be the effect or the level left
[13] = Antidepressant- like activity in mouse assessed as decrease in immobility time at 30 mg/kg, po by tail suspension test relative to control; assay type: functional, organism-based; design: scale not given: the % may be the effect or the level left

Structure (SMILES): O=c1c(O)c(-c2ccc(O)c(O)c2)oc2cc(O)ccc12 [FISETIN]
- inhibition in vivo at 20 mg/kg (Mus musculus): 14.7%

Structure (SMILES): CC(C)=CCOc1ccc(C(=O)/C=C/c2ccc3ccccc3c2)c(O)c1
- TIME [1]: 0.0254 h
- TIME [2]: 0.022 h
- TIME [3]: 0.0257 h
- TIME [4]: 0.0295 h
- TIME [5]: 0.0217 h
- TIME [6]: 0.0241 h

Structure (SMILES): COc1cc(C2CC(=O)c3ccc(O)cc3O2)ccc1O (centres undefined)
- TIME [7]: 0.0256 h
- Activity [8]: 34.6%

Structure (SMILES): O=c1cc(-c2ccc(O)c(O)c2)oc2cc(O[C@@H]3O[C@H](CO)[C@@H](O)[C@H](O)[C@H]3O)cc(O)c12 [GALUTEOLIN]
- IC50 [9]: 118.6 µg/mL (≈ 265 µM)

Structure (SMILES): O=C1CC(c2ccc(Cl)cc2Cl)Oc2cc(O)ccc21 (centres undefined)
- Activity [8]: 30.4%

Structure (SMILES): O=C1c2c(O)cc(O)cc2O[C@H](c2ccc(O)c(O)c2)[C@H]1O [(+)-TAXIFOLIN]
- IC50 [9]: 153.1 µg/mL (≈ 503 µM)

Structure (SMILES): O=C(O)[C@H]1O[C@@H](Oc2cc(O)c3c(=O)cc(-c4ccc(O)cc4)oc3c2)[C@H](O)[C@@H](O)[C@@H]1O
- IC50 [9]: 81.7 µg/mL (≈ 183 µM)

Structure (SMILES): CNCCC(Oc1ccc(C(F)(F)F)cc1)c1ccccc1 (centres undefined)
- TIME [10]: 0.0174 h
- TIME [11]: 0.0112 h
- TIME [3]: 0.0229 h
- TIME [6]: 0.021 h
- TIME [7]: 0.0195 h

Structure (SMILES): COc1ccc(/C=C/C(=O)c2ccc(OCC=C(C)C)cc2O)cc1
- TIME [10]: 0.0112 h
- TIME [11]: 0.0141 h
- Activity [12]: 71.4%
- Activity [13]: 61%

Structure (SMILES): CC(C)=CCOc1ccc(C(=O)/C=C/c2cccc(Br)c2)c(O)c1
- TIME [10]: 0.0102 h
- TIME [11]: 0.0118 h
- Activity [12]: 74.1%
- Activity [13]: 67.6%

Structure (SMILES): CC(C)=CCOc1ccc(C(=O)/C=C/c2c(Cl)cccc2Cl)c(O)c1
- TIME [10]: 0.0116 h
- TIME [11]: 0.0135 h

Structure (SMILES): O=C1c2c(O)cc(O)cc2O[C@H](c2ccc(O)cc2)[C@H]1O [DIHYDROKAEMPFEROL]
- IC50 [9]: 154.7 µg/mL (≈ 537 µM)
